EC50 data for 28 compounds are collected here from patent US12528790B2, “Amide derivative having antiviral activity” (Shionogi & Co., Ltd., priority 2020, dated 2026).

One test has as its system RSV A2 strain. Put plainly: In vitro CPE (CytoPathic Effect) inhibition effect evaluation test, RSV type A. As to conditions: human respiratory syncytial virus. The test is classed as cell-based. Put shortly: (§1)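 EC50 is the concentration giving 50% inhibition of virus-induced cytopathic effect, fitted by nonlinear regression from CellTiter-Glo 2.0 viability. Compounds in 3-fold series were co-incubated at 37 °C with HEp-2 cells and RSV: A2 strain for 4 days, B (Wash/18537) for 5 days; uninfected wells served as control.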
Background: Protection from cytopathic effect is a common read-out in antiviral testing.

Test [1] deals with RSV B (Wash/18537 strain). Nature of the test: In vitro CPE (CytoPathic Effect) inhibition effect evaluation test, RSV type B. To be noted: human respiratory syncytial virus. The test is classed as cell-based. In short, it runs like this: as §1
Where [2] appears, read: inhibitory effect against RSV type A (RSV A2 strain), HEp-2 cells, CPE inhibition, read-out: EC50.
The mark [3] stands for this setting: inhibitory effect against RSV type B, CPE inhibition, read-out: EC50.

Read-outs that look alike come from different tables or passages of the source.

For orientation: EC50 means the midpoint of the concentration-response curve.

`O=C(NC1(C(=O)O)C2CC3CC(C2)CC1C3)c1cnc(-c2cn(C3CCC(F)(F)CC3)c3cc(C(=O)N4CCN(CC(F)(F)F)CC4)ccc23)nc1C(F)(F)F` (centres unmarked) [Compound I-418]: the concentration for a half-maximal effect (EC50) (in the test with RSV A2 strain (setting [2]); in test [1] (setting [3])) was under 10 nM each time.
Consider `O=C(NC1(C(=O)O)C2CC3CC(C2)CC1C3)c1cnc(N2CC3(CCCCC3)c3cc(C(=O)N4CCN(c5ncccn5)CC4)ccc32)nc1C(F)(F)F` (centres unmarked) [Compound I-444], for which the EC50 (in the test on RSV A2 strain (setting [2]); in test [1] (setting [3])) was under 10 nM in each case.
Regarding `O=C(NC1(C(=O)O)C2CC3CC(C2)CC1C3)c1ccc(-c2cn(C3CCC(F)(F)CC3)c3cc(OC4CCN(CC(F)(F)F)CC4)ccc23)nc1C(F)(F)F` (centres unmarked) [Compound I-511], the EC50 is under 10 nM in the test with RSV A2 strain (setting [2]) and 10 to 100 nM in test [1] (setting [3]).
On to `CCC(CC)n1cc(-c2ncc(C(=O)NC3(C(=O)O)C4CC5CC(C4)CC3C5)c(C(C)(F)F)n2)c2ccc(O[C@H]3CC[C@H](N4CC(F)(F)C4)CC3)cc21` (some centres unmarked) [Compound I-570], for which the concentration giving a half-maximal response (EC50) turned out to be 0.7 nM with RSV A2 strain (HEp-2, 96 h, read-out: EC50, inhibitory effect against RSV type A (CPE inhibition)) and 2.1 nM in test [1] (HEp-2, 120 h, HEp-2 cells, RSV B (Wash/18537 strain), 5 days, CellTiter-Glo, read-out: EC50, inhibitory effect against RSV type B (CPE inhibition)).
In the case of `CC(F)(F)c1nc(N2CC3(CCOCC3)c3cc(OC4CCC5(CC4)CN(CC(F)(F)F)C5)ccc32)ncc1C(=O)NC1(C(=O)O)C2CC3CC(C2)CC1C3` (centres unmarked) [Compound I-549], the concentration giving a half-maximal response (EC50) (in the test on RSV A2 strain (setting [2]); in test [1] (setting [3])) was under 10 nM each time.
Consider `O=C(NC1(C(=O)O)C2CC3CC(C2)CC1C3)c1ccc(-c2cn(S(=O)(=O)C3CC3)c3cc(OC4CCN(c5ncccn5)CC4)ccc23)nc1C(F)(F)F` (centres unmarked) [Compound I-272], for which the values for the EC50 (in the test on RSV A2 strain (setting [2]); in test [1] (setting [3])) were under 10 nM and 10 to 100 nM, respectively.
The matching figures for `O=C(NC1(C(=O)O)C2CC3CC(C2)CC1C3)c1cnc(N2CC3(CCCC3)c3cc(O[C@@H]4CCN(CC(F)(F)F)C4)ccc32)nc1C(F)(F)F` (some centres unmarked) [Compound I-566]: under 10 nM and under 10 nM.
On to `O=C(NC1(C(=O)O)CCCCC1)c1cnc(N2CCc3cc(OCCC4CCOCC4)ccc32)nc1C(F)(F)F` [Compound I-8], for which the EC50 (in the test with RSV A2 strain (setting [2]); in test [1] (setting [3])) was 10 to 100 nM in each case.
Regarding `CC(F)(F)c1nc(N2CC3(CCOCC3)c3cc(OC4CCN(C5CC(F)(F)C5)CC4)ccc32)ncc1C(=O)NC1(C(=O)O)C2CC3CC(C2)CC1C3` (centres unmarked) [Compound I-551], the EC50 (with RSV A2 strain (setting [2]); in test [1] (setting [3])) was under 10 nM throughout.
For the compound `CC(F)(F)c1nc(N2CC3(CCCCC3)c3cc(C(=O)N4CCN(c5ncccn5)CC4)ccc32)ncc1C(=O)NC1(C(=O)O)C2CC3CC(C2)CC1C3` (centres unmarked) [Compound I-453], the EC50 (in the test on RSV A2 strain (setting [2]); in test [1] (setting [3])) was under 10 nM in each case.
Take `CC(F)(F)c1nc(N2CC3(CCOCC3)c3cc(OC4CN(c5ncc(F)cn5)C4)ccc32)ncc1C(=O)NC1(C(=O)O)C2CC3CC(C2)CC1C3` (centres unmarked) [Compound I-542]: the EC50 (in the test on RSV A2 strain (setting [2]); in test [1] (setting [3])) was under 10 nM each time.
With `COc1cccc(COc2ccc3c(c2)CCN3c2ncc(C(=O)NC3(C(=O)O)C4CC5CC(C4)CC3C5)c(C(F)(F)F)n2)c1` (centres unmarked) [Compound I-21], the concentration giving a half-maximal response (EC50) with RSV A2 strain (setting [2]) is under 10 nM; in test [1] (setting [3]) it was 10 to 100 nM.
As to `O=C(NC1(C(=O)O)CCCCC1)c1cnc(N2CCc3cc(OCCc4ccccc4)ccc32)nc1C(F)(F)F` [Compound I-4], the values for the EC50 (in the test with RSV A2 strain (setting [2]); in test [1] (setting [3])) were 10 to 100 nM and 100 to 5000 nM, respectively.
For the compound `O=C(NC1(C(=O)O)C2CC3CC(C2)CC1C3)c1cnc(-c2cn(C3CCC(F)(F)CC3)c3cc(OC4CCN(C5CC(F)(F)C5)CC4)ccc23)nc1C(F)(F)F` (centres unmarked) [Compound I-249], the EC50 with RSV A2 strain (setting [2]) is under 10 nM; in test [1] (setting [3]) it was 10 to 100 nM.
`O=C(NC1(C(=O)O)C2CC3CC(C2)CC1C3)c1cnc(N2CC3(CCCCC3)c3cc(OC4CC5(CCN(CC(F)(F)F)CC5)C4)ccc32)nc1C(F)(F)F` (centres unmarked) [Compound I-473]: the EC50 in the test on RSV A2 strain (setting [2]) is under 10 nM; in test [1] (setting [3]), 100 to 5000 nM.
Turning to `O=C(NC1(C(=O)O)C2CC3CC(C2)CC1C3)c1ccc(-c2cn(C3COC3)c3cc(OC4CCN(c5ncccn5)CC4)ccc23)nc1C(F)(F)F` (centres unmarked) [Compound I-151], the 50% effective concentration (EC50) (in the test with RSV A2 strain (setting [2]); in test [1] (setting [3])) was under 10 nM in each case.
For the compound `CC[C@@H](C)n1cc(-c2ncc(C(=O)NC3(C(=O)O)C4CC5CC(C4)CC3C5)c(C(F)(F)F)n2)c2ccc(O[C@H]3CC[C@H](N4CC(F)(F)C4)CC3)cc21` (some centres unmarked) [Compound I-613], the half-maximal effective concentration (EC50) (with RSV A2 strain (setting [2]); in test [1] (setting [3])) was under 10 nM in each case.
As to `CC(F)(F)c1nc(-c2cn(C3CC3)c3cc(O[C@H]4CC[C@H](N5CC(F)(F)C5)CC4)ccc23)ncc1C(=O)NC1(C(=O)O)C2CC3CC(C2)CC1C3` (some centres unmarked) [Compound I-530], the half-maximal effective concentration (EC50) (with RSV A2 strain (setting [2]); in test [1] (setting [3])) was under 10 nM each time.
Regarding `CC(F)(F)c1nc(N2CC3(CCCCC3)c3cc(O[C@H]4CC[C@H](N5CC(F)(F)C5)CC4)ncc32)ncc1C(=O)NC1(C(=O)O)C2CC3CC(C2)CC1C3` (some centres unmarked) [Compound I-555], the values for the EC50 (in the test with RSV A2 strain (setting [2]); in test [1] (setting [3])) were under 10 nM and 10 to 100 nM, respectively.
`O=C(NC1(C(=O)O)C2CC3CC(C2)CC1C3)c1cnc(-c2cn(C3CCOCC3)c3cc(O[C@H]4CC[C@H](N5CC(F)(F)C5)CC4)ccc23)nc1C(F)(F)F` (some centres unmarked) [Compound I-499]: the EC50 (with RSV A2 strain (setting [2]); in test [1] (setting [3])) was under 10 nM throughout.
As for `O=C(NC1(C(=O)O)C2CC3CC(C2)CC1C3)c1cnc(N2CC3(CCOCC3)c3cc(OCCC(F)(F)F)ncc32)nc1C(F)(F)F` (centres unmarked) [Compound I-489], the EC50 (in the test on RSV A2 strain (setting [2]); in test [1] (setting [3])) was under 10 nM throughout.
In the case of `CC(C)n1cc(-c2ncc(C(=O)NC3(C(=O)O)C4CC5CC(C4)CC3C5)c(C(F)(F)F)n2)c2ccc(O[C@H]3CC[C@H](N4CC(F)(F)C4)CC3)cc21` (some centres unmarked) [Compound I-616], the concentration for a half-maximal effect (EC50) (in the test with RSV A2 strain (setting [2]); in test [1] (setting [3])) was under 10 nM throughout.
Turning to `CC(F)(F)c1nc(N2CC3(CCCCC3)c3cc(OC4CCN(c5ncccn5)CC4)ccc32)ncc1C(=O)NC1(C(=O)O)C2CC3CC(C2)CC1C3` (centres unmarked) [Compound I-380], the half-maximal effective concentration (EC50) (with RSV A2 strain (setting [2]); in test [1] (setting [3])) was under 10 nM each time.
On to `CC(F)(F)CN1CCC(Oc2ccc3c(c2)C2(CCOCC2)CN3c2ncc(C(=O)NC3(C(=O)O)C4CC5CC(C4)CC3C5)c(C(C)(F)F)n2)CC1` (centres unmarked) [Compound I-548], for which the EC50 (in the test with RSV A2 strain (setting [2]); in test [1] (setting [3])) was under 10 nM in each case.
Take `O=C(NC1(C(=O)O)C2CC3CC(C2)CC1C3)c1ccc(-c2cn(-c3ccncc3)c3cc(OC4CCN(c5ncccn5)CC4)ccc23)nc1C(F)(F)F` (centres unmarked) [Compound I-176]: the EC50 (in the test with RSV A2 strain (setting [2]); in test [1] (setting [3])) was under 10 nM in each case.
`O=C(NC1(C(=O)O)C2CC3CC(C2)CC1C3)c1ccc(-c2cn(C3CC4C=CC(C3)O4)c3cc(OC4CCN(c5ncc(F)cn5)CC4)ccc23)nc1C(F)(F)F` (single isomer, unassigned) [Compound I-434]: the EC50 (with RSV A2 strain (setting [2]); in test [1] (setting [3])) was under 10 nM in each case.
In the case of `CC(F)(F)c1nc(-c2cn(C3CCOCC3)c3cc(O[C@H]4CC[C@H](N5CC(F)(F)C5)CC4)ccc23)ncc1C(=O)NC1(C(=O)O)C2CC3CC(C2)CC1C3` (some centres unmarked) [Compound I-572], the half-maximal effective concentration (EC50) (in the test on RSV A2 strain (setting [2]); in test [1] (setting [3])) was under 10 nM throughout.
Consider `O=C(NC1(C(=O)O)C2CC3CC(C2)CC1C3)c1cnc(N2CC3(CCCCC3)c3cc(OC4CCN(C5CSC5)CC4)ccc32)nc1C(F)(F)F` (centres unmarked) [Compound I-485], for which the half-maximal effective concentration (EC50) in the test on RSV A2 strain (setting [2]) was under 10 nM; in test [1] (setting [3]), 10 to 100 nM.
